What is called inhibition is the relative decrease from the control value, in per cent.

In the first assay the target is T1, human RIPK1 (1-375) (Homo sapiens, UniProt Q13546).
T1 construct: human RIPK1 (1-375) gene; GST; made in house; host or cells: Sf-9 insect cells
T1 sequence (Q13546 1-375): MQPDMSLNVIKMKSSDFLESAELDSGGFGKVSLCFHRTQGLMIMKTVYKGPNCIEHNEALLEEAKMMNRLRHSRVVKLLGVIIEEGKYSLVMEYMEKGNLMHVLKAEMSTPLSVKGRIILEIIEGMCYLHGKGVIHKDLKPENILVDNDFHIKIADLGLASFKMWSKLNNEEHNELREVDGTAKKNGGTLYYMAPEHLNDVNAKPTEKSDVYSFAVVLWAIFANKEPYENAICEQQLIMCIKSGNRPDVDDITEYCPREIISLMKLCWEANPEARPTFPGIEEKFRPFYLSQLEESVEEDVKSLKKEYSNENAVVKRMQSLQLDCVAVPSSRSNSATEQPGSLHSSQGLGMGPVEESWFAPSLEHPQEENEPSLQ
In words: Human RIPK1 enzyme inhibitory effect (ADP-Glo Kinase Assay). The assay is classed as biochemical. The settings on record: 10 μM test compound; well without enzyme = 100% inhibition; 10 µM. The protocol:
Experimental Example 1: Human RIPK1 Enzyme Inhibitory Effect
Enzyme was prepared by transducing human RIPK1 (1-375) gene to Sf-9 insect cells, and purifying using GST affinity column, and enzyme activity evaluation was performed using the enzyme. The enzyme was used after preservation at −70° C. The RIPK1 enzyme inhibitory activity of the test compound was measured using ADP-Glo™ Kinase Assay (Promega) according the following experiment methods. The test compound diluted with assay buffer (25 mM HEPES (pH 7.5), 10 mM MgCl2, 0.01% Tween-20, 2 mM DTT) was added to 384 well plate by each 2 μL. Next, RIPK1 enzyme solution diluted with the assay buffer was added thereto by each 2 μL, and the mixture was incubated at room temperature for 20 min. After the incubation, 0.6 mM ATP solution was added thereto by each 2 μL to initiate an enzyme reaction. The mixture was incubated at room temperature for 120 min, and ADP-Glo solution prepared according to Promega protocol was added to the 384 well plate by each 3 μL, and the reaction was performed at room temperature for 40 min. Then, Kinase-Detection solution was added to the 384 well plate by each 6 μL, and the reaction was performed at room temperature for 40 min. After the reaction, the luminescence intensity was measured by plate reader Envision (PerkinElmer).
In general terms: ADP-Glo turns the ADP formed in a reaction into a luminescent signal.
Consider `CN1C(=O)C(N2CCc3c(nn(Cc4ccccc4)c3Cl)C2=O)CCc2ncccc21` (stereo not shown) [Example 65, 7-(2-benzyl-3-chloro-7-oxo-2,4,5,7-tetrahydro-6H-pyrazolo[3,4-c]pyridin-6-yl)-5-methyl-5,7,8,9-tetrahydro-6H-pyrido[3,2-b]azepin-6-one], for which the “human RIPK1 enzyme inhibitory effect at 10 μM (% inhibition)” value stood at 99%. Consider `CN1C(=O)C(N2CCc3c(nn(Cc4ccccc4)c3Cl)C2=O)CCc2cccnc21` (stereo not shown) [Example 93, 7-(2-benzyl-3-chloro-7-oxo-2,4,5,7-tetrahydro-6H-pyrazolo[3,4-c]pyridin-6-yl)-9-methyl-5,6,7,9-tetrahydro-8H-pyrido[2,3-b]azepin-8-one], for which the “human RIPK1 enzyme inhibitory effect at 10 μM (% inhibition)” value amounted to 69%. On to `CNC(=O)c1ccc2c(c1)CCC(N1CCc3c(nn(Cc4ccccc4)c3Cl)C1=O)C(=O)N2C` (stereo not shown) [Example 137, 3-(2-benzyl-3-chloro-7-oxo-2,4,5,7-tetrahydro-6H-pyrazolo[3,4-c]pyridin-6-yl)-N,1-dimethyl-2-oxo-2,3,4,5-tetrahydro-1H-1-benzazepine-7-carboxamide], for which the “human RIPK1 enzyme inhibitory effect at 10 μM (% inhibition)” value amounted to 87%. Regarding `CNC(=O)c1ccc2c(c1)CCC(N1CCc3c(nn(Cc4ccccc4)c3Cl)C1=O)C(=O)N2C` (stereo not shown) [Example 136, 3-(2-benzyl-3-chloro-7-oxo-2,4,5,7-tetrahydro-6H-pyrazolo[3,4-c]pyridin-6-yl)-N,1-dimethyl-2-oxo-2,3,4,5-tetrahydro-1H-1-benzazepine-7-carboxamide], the “human RIPK1 enzyme inhibitory effect at 10 μM (% inhibition)” value is on record as 101%.

Staying with this assay, now noted: read-out: human RIPK1 enzyme inhibitory effect at 10 μM (% inhibition), 10 μM test compound; well without enzyme = 100% inhibition.
With `CN1C(=O)[C@@H](N2CCc3c(nn(Cc4ccccc4)c3Cl)C2=O)COc2ccc(C#N)cc21` [Example 145, (3S)-3-(2-benzyl-3-chloro-7-oxo-2,4,5,7-tetrahydro-6H-pyrazolo[3,4-c]pyridin-6-yl)-5-methyl-4-oxo-2,3,4,5-tetrahydro-1,5-benzoxazepine-7-carbonitrile], the inhibition at 10 µM was found to be 101%. Take `CN1C(=O)[C@@H](N2CCc3cn(Cc4ccccc4F)nc3C2=O)COc2ccc(C#N)cc21` [Example 77, (3S)-3-(2-(2-fluorobenzyl)-7-oxo-2,4,5,7-tetrahydro-6H-pyrazolo[3,4-c]pyridin-6-yl)-5-methyl-4-oxo-2,3,4,5-tetrahydro-1,5-benzoxazepine-7-carbonitrile]: the inhibition at 10 µM amounted to 101%.

As for `Cc1ccccc1Cn1cc2c(n1)C(=O)N([C@H]1COc3ccccc3N(C)C1=O)CC2` [Example 22, (3S)-5-methyl-3-(2-(2-methylbenzyl)-7-oxo-2,4,5,7-tetrahydro-6 H-pyrazolo[3,4-c]pyridin-6-yl)-2,3-dihydro-1,5-benzoxazepin-4(5H)-one], the inhibition at 10 µM turned out to be 100%.

For the compound `COCc1ccc2c(c1)OC[C@H](N1CCc3c(nn(Cc4ccccc4)c3Cl)C1=O)C(=O)N2C` [Example 141, (3S)-3-(2-benzyl-3-chloro-7-oxo-2,4,5,7-tetrahydro-6H-pyrazolo[3,4-c]pyridin-6-yl)-8-(methoxymethyl)-5-methyl-2,3-dihydro-1,5-benzoxazepin-4(5H)-one], the inhibition at 10 µM was 100%. `CNC(=O)c1ccc2c(c1)OC[C@H](N1CCc3c(nn(Cc4ccccc4)c3Cl)C1=O)C(=O)N2C` [Example 44, (3S)-3-(2-benzyl-3-chloro-7-oxo-2,4,5,7-tetrahydro-6H-pyrazolo[3,4-c]pyridin-6-yl)-N,5-dimethyl-4-oxo-2,3,4,5-tetrahydro-1,5-benzoxazepine-8-carboxamide]: the inhibition at 10 µM came to 100%. On the same count and under the same terms, the figure for `CN(C)C(=O)c1ccc2c(c1)OC[C@H](N1CCc3c(nn(Cc4ccccc4)c3Cl)C1=O)C(=O)N2C` [Example 87, (3S)-3-(2-benzyl-3-chloro-7-oxo-2,4,5,7-tetrahydro-6H-pyrazolo[3,4-c]pyridin-6-yl)-N,N,5-trimethyl-4-oxo-2,3,4,5-tetrahydro-1,5-benzoxazepine-8-carboxamide] is 100%; for `CN1C(=O)[C@@H](N2CCc3c(nn(Cc4ccccc4)c3O)C2=O)COc2ccccc21` [Example 49, (3S)-3-(2-benzyl-3-hydroxy-7-oxo-2,4,5,7-tetrahydro-6H-pyrazolo[3,4-c]pyridin-6-yl)-5-methyl-2,3-dihydro-1,5-benzoxazepin-4(5H)-one] it is 87%. The same measure, in the same setting: for `Cc1c2c(nn1Cc1ccccc1)C(=O)N([C@H]1COc3cc(Br)ccc3N(C)C1=O)CC2` [Example 84] the value was 101%. Regarding `CN1C(=O)[C@@H](N2CCc3c(nn(Cc4cnccn4)c3Cl)C2=O)COc2cc(F)ccc21` [Example 75, (3S)-3-(3-chloro-7-oxo-2-(pyrazin-2-ylmethyl)-2,4,5,7-tetrahydro-6H-pyrazolo[3,4-c]pyridin-6-yl)-8-fluoro-5-methyl-2,3-dihydro-1,5-benzoxazepin-4(5H)-one], the inhibition at 10 µM turned out to be 101%.

For `CN1C(=O)[C@@H](N2CCc3cn(Cc4c(F)cccc4F)nc3C2=O)COc2cc(Br)ccc21` [Example 110, (3S)-8-bromo-3-(2-(2,6-difluorobenzyl)-7-oxo-2,4,5,7-tetrahydro-6H-pyrazolo[3,4-c]pyridin-6-yl)-5-methyl-2,3-dihydro-1,5-benzoxazepin-4(5H)-one], the inhibition at 10 µM was determined as 100%. Consider `CN1C(=O)[C@@H](N2CCc3cn(Cc4ccc(S(C)(=O)=O)cc4)nc3C2=O)COc2ccccc21` [Example 164, (3S)-5-methyl-3-(2-(4-(methylsulfonyl)benzyl)-7-oxo-2,4,5,7-tetrahydro-6H-pyrazolo[3,4-c]pyridin-6-yl)-2,3-dihydro-1,5-benzoxazepin-4(5H)-one], for which the inhibition at 10 µM worked out at 98%. Regarding `O=C1Nc2ccccc2CCC1N1CCn2nc(Cc3ccccc3)cc2C1=O` (stereo not shown) [Example 18, 3-(2-benzyl-4-oxo-6,7-dihydropyrazolo[1,5-a]pyrazin-5(4H)-yl)-1,3,4,5-tetrahydro-2H-1-benzazepin-2-one], the inhibition at 10 µM was determined as 72%. As for `Cc1c2c(nn1Cc1ccccc1)C(=O)N([C@H]1COc3cc(C#N)ccc3N(C)C1=O)CC2` [Example 86], the inhibition at 10 µM is 100%.

In the case of `CN1C(=O)[C@@H](N2CCc3cn(Cc4cccc(F)c4)nc3C2=O)CSc2ccccc21` [Example 156, (3R)-3-(2-(3-fluorobenzyl)-7-oxo-2,4,5,7-tetrahydro-6H-pyrazolo[3,4-c]pyridin-6-yl)-5-methyl-2,3-dihydro-1,5-benzothiazepin-4(5H)-one], the inhibition at 10 µM is 97%.

Consider `CN1C(=O)[C@@H](N2Cc3c(nn(Cc4ccccc4)c3Cl)C2=O)COc2ccccc21` [Example 78, (3S)-3-(2-benzyl-3-chloro-6-oxo-2,6-dihydropyrrolo[3,4-c]pyrazol-5(4H)-yl)-5-methyl-2.3-dihydro-1,5-benzoxazepin-4(5H)-one], for which the inhibition at 10 µM turned out to be 99%. The same measure, in the same setting: for `CN1C(=O)C(N2CCc3c(nn(Cc4ccccc4)c3Cl)C2=O)CCc2nn(C)cc21` (stereo not shown) [Example 92, 6-(2-benzyl-3-chloro-7-oxo-2,4,5,7-tetrahydro-6H-pyrazolo[3,4-c]pyridin-6-yl)-2,4-dimethyl-2,6,7,8-tetrahydropyrazolo[4,3-b]azepin-5(4H)-one] the value was 98%.

In the case of `CN1C(=O)[C@@H](N2CCc3cn(Cc4ccccc4F)nc3C2=O)COc2cc(C#N)ccc21` [Example 43, (3S)-3-(2-(2-fluorobenzyl)-7-oxo-2,4,5,7-tetrahydro-6H-pyrazolo[3,4-c]pyridin-6-yl)-5-methyl-4-oxo-2,3,4,5-tetrahydro-1,5-benzoxazepine-8-carbonitrile], the inhibition at 10 µM worked out at 97%. On to `CN1C(=O)[C@@H](N2CCc3cn(Cc4ccccc4)nc3C2=O)COc2ccc(C(N)=O)cc21` [Example 72, (3S)-3-(2-benzyl-7-oxo-2,4,5,7-tetrahydro-6H-pyrazolo[3,4-c]pyridin-6-yl)-5-methyl-4-oxo-2,3,4,5-tetrahydro-1,5-benzoxazepine-7-carboxamide], for which the inhibition at 10 µM was determined as 99%. The same measure, in the same setting: for `O=C1Nc2ccccc2CCC1n1ccc2cn(Cc3ccccc3)nc2c1=O` (stereo not shown) [Example 5, 3-(2-benzyl-7-oxo-2,7-dihydro-6H-pyrazolo[3,4-c]pyridin-6-yl)-1,3,4,5-tetrahydro-2H-1-benzazepin-2-one] the value was 88%. For the compound `CN1C(=O)[C@@H](N2CCc3cn(Cc4cccc(Cl)c4)nc3C2=O)COc2ccccc21` [Example 26, (3S)-3-(2-(3-chlorobenzyl)-7-oxo-2,4,5,7-tetrahydro-6H-pyrazolo[3,4-c]pyridin-6-yl)-5-methyl-2,3-dihydro-1,5-benzoxazepin-4(5H)-one], the inhibition at 10 µM came out at 100%. For `CN1C(=O)[C@@H](N2CCc3c(nc(Cc4ccccc4)n3C)C2=O)COc2ccccc21` [Example 56, (3S)-3-(2-benzyl-1-methyl-4-oxo-1,4,6,7-tetrahydro-5H-imidazo[4,5-c]pyridin-5-yl)-5-methyl-2,3-dihydro-1,5-benzoxazepin-4(5H)-one], the inhibition at 10 µM turned out to be 96%.

The record behind these values is patent US10787462B2, “Heterocyclic compound” (TAKEDA PHARMACEUTICAL COMPANY LIMITED, priority 2015, dated 2020).
